{
  "source": "patent US11191804B2",
  "about": "“Cytocidal agent” (FUJITA ACADEMY, priority 2018, dated 2021)",
  "key": {"[1]": {"assay": "Body weight of endometriosis model mice after single intraperitoneal administration", "assay_type": "in vivo, mouse", "conditions": "for Body Weight, 7th day: 7 days after cell transplantation, before peptide administration (baseline); for Body Weight, 7th day / Body Weight, 8th day: mean ± standard error", "description": "Seven days after the A431-CNGB3-myc cells were intraperitoneally transplanted, 0.5 mL of physiological saline solution warmed to 37° C. was intraperitoneally administered to an endometriosis model mouse under isoflurane anesthesia, followed by performing massage. Immediately after the massage, a solution of the K14D-H5D peptide dissolved in physiological saline was intraperitoneally administered. The K14D-H5D peptide was administered at a dose of 0 mg/10 mL/kg (control) (n=7), 5 mg/10 mL/kg (n=8), or 10 mg/10 mL/kg (n=8) per mouse body weight\nEach mouse was weighed 7 days after the A431-CNGB3-myc cells were intraperitoneally transplanted, before K14D-H5D peptide administration and before exsanguination.\nThe mouse group in which the dose of the K14D-H5D peptide per mouse body weight was 0 mg/10 mL/kg was represented as G1 group, the mouse group in which the dose of the K14D-H5D peptide per mouse body weight was 5 mg/10 mL/kg was represented as G2 group, and the mouse group in which the dose of the K14D-H5D peptide per mouse body weight was 10 mg/10 mL/kg was represented as G3 group. […] In the Table, “7th day” in the “Body Weight” column is the body weight 7 days after the intraperitoneal transplantation of the A431-CNGB3-myc cells, which was before the administration of the K14D-H5D peptide, and “8th day” is the body weight 24 hours after the administration of the K14D-H5D peptide."}, "OVCAR3-Luc cells": {"test_system": "OVCAR3-Luc cells", "assay": "Cytocidal activity by ATP amount (CellTiter-Glo assay kit)", "assay_type": "cell-based", "description": "The tumor tissue to be transplanted to the mouse was prepared by culturing an ovarian cancer cell line (OVCAR3-Luc cells, transferred from another facility) into which the luciferase gene had been introduced, and used. The OVCAR3-Luc cells were cultured in a culture medium containing a RPMI medium 1640 (11875-093: manufactured by Gibco) containing 10% inactivated FBS (manufactured by Corning) at 37° C. and under a 5 vol % carbon dioxide environment. Passaging was carried out every 2-3 days.\n(§1) The cytocidal activity of each peptide was evaluated by measuring the ATP amount in the cells treated with each peptide using CellTiter-Glo (registered trademark) assay kit (manufactured by Promega).\n(§2) Specifically, first, the A431-CNGB3-myc cells or the OVCAR3-Luc cells after 3 to 4 passages were seeded in a 96-well plate (manufactured by Corning/Costar, Lot No. 00515003) so as to adjust the cell concentration to 1×10^4 cells/well. […] Luminescence (RLU: RELATIVE LIGHT UNITS) of each reaction solution after standing at room temperature was measured using a Synergy H1 hybrid multimode microplate reader (manufactured by BioTek). The luminescence intensity of the reaction solution is an index of the ATP amount. The smaller the luminescence intensity of the reaction solution, the smaller the ATP amount and the stronger the cytocidal activity of the administered peptide. […]"}, "A431-CNGB3-myc cells": {"test_system": "A431-CNGB3-myc cells", "assay": "Cytocidal activity by ATP amount (CellTiter-Glo assay kit)", "assay_type": "cell-based, human", "conditions": "peptide 2.34 to 300.0 μM, 24 hours, FIG. 1", "description": "A transformed cell (A431-CNGB3-myc cell) obtained by introducing a gene encoding human CNGB3, in which an myc tag was fused in a C-terminal, into an A431 cell (human epithelial-like cell cancer-derived cell strain) and forcibly expressing thereof was prepared as an endometriosis model cell.\nas §1\nas §2, with “peptide. All trials were measured in triplicate, and the average value thereof was taken as the emission intensity (RLU) of each reaction solution.” for “peptide.”"}},
  "note": "Where no end group is shown, it is not given here. [ ]: non-standard residue; d: D form.",
  "data": [
    {"compound": "CC(C)C[C@@H](NC(=O)[C@@H](Cc1c[nH]cn1)NC(=O)[C@@H](C)NC(=O)[C@@H](CC(C)C)NC(=O)[C@@H](Cc1c[nH]cn1)NC(=O)[C@@H](CCCCN)NC(=O)[C@@H](C)NC(=O)[C@@H](CC(C)C)NC(=O)[C@@H](CCCCN)NC(=O)[C@@H](C)NC(=O)[C@@H](CC(C)C)NC(=O)[C@@H](CCCCN)NC(=O)[C@@H](CCCCN)NC(=O)[C@@H](C)NC(=O)[C@@H](CC(C)C)NC(=O)[C@@H](CCCCN)NC(=O)[C@@H](C)NC(=O)[C@@H](CC(C)C)NC(=O)[C@H](N)CCCCN)C(=O)O", "note": "[Peptide K14D-H5D, KLAKLAK-KLAKLAK-HLAHL]", "values": [
      {"measurement": "change in body weight", "setting": "[1]; 5 or 10 mg/10 mL/kg single i.p., 24 hours after administration, depending on the dose", "value": "slight decrease"},
      {"measurement": "Body Weight, 7th day", "setting": "[1]; G2 group, 5 mg/10 mL/kg i.p.", "value": "20.1 ± 0.4", "unit": "g"},
      {"measurement": "Body Weight, 8th day", "setting": "[1]; G2 group, 5 mg/10 mL/kg single i.p., 24 hours after administration", "value": "19.2 ± 0.5", "unit": "g"},
      {"measurement": "Body Weight, 7th day", "setting": "[1]; G3 group, 10 mg/10 mL/kg i.p.", "value": "20.0 ± 0.4", "unit": "g"},
      {"measurement": "Body Weight, 8th day", "setting": "[1]; G3 group, 10 mg/10 mL/kg single i.p., 24 hours after administration", "value": "17.5 ± 0.3", "unit": "g"}
    ]},
    {"compound": "KLAKLAK-KLAKLAK-HLAHL-VRRADNRPG (KLAKLAKKLAKLAKHLAHLVRRADNRPG; not fully specified (some residues); printed as KLAKLAK-KLAKLAK-HLAHL-VRRADNRPG; also: D-amino acids, positions not given here) [Peptide K14D-H5D-Z13]", "values": [
      {"measurement": "cytocidal activity compared with the K14D-H5D peptide", "setting": "OVCAR3-Luc cells; OVCAR3-Luc cells having no CNGB3 on the cell surface, FIG. 3", "value": "the same cytocidal activity"}
    ]},
    {"compound": "KLAKLAK-HLAHLAH-HLAHLAH-HLAH ([dK][dL][dA][dK][dL][dA][dK][dH][dL][dA][dH][dL][dA][dH][dH][dL][dA][dH][dL][dA][dH][dH][dL][dA][dH]) [Peptide K7D-H18D, reference compound]", "values": [
      {"measurement": "relative ATP amount (%) / cytocidal activity", "setting": "A431-CNGB3-myc cells", "value": "decreased in a dose-dependent manner"},
      {"measurement": "relative ATP amount (%) / cytocidal activity", "setting": "OVCAR3-Luc cells; OVCAR3-Luc cells, peptide 2.34 to 300.0 μM, 24 hours, FIG. 2", "value": "decreased in a dose-dependent manner"}
    ]}
  ]
}
